Data: patent US9913843B2, “Protein kinase C inhibitors and uses thereof” (Rigel Pharmaceuticals, Inc., priority 2012, dated 2018)
pIC50: −log10 of the molar value. Read-outs that look alike come from different tables or passages of the source.

Tested on: PKC mediated IL-2 production in human primary T cells
Experiment: IL-2 ELISA, human primary T cell, anti CD3+CD28+ (whole cell functional assay for PKC mediated IL-2 production)
Assay type: cell-based
Method in brief: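 IL-2 in supernatants was quantified by ELISA after 24 h at 37 °C. Before stimulation with plate-coated anti-CD3 (1 μg/ml) and anti-CD28 (5 μg/ml), T cells expanded from PBMC were exposed to compound for 1 h; the counter-screen replaced antibodies with PMA 0.5 ng/ml and ionomycin 0.1 μM (final).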

[1] = 24 h, human primary T cells stimulated with anti-CD3 + anti-CD28, IL-2 by ELISA, read-out: IC50 for blocking IL-2 production
[2] = human primary T cells stimulated with anti-CD3 + anti-CD28, 24 h, IL-2 by ELISA, 8 pt, read-out: IL2 ELISA, Human primary T cell, anti-CD3 + CD28, 8 pt (IC50)

Row | Compound | pIC50 [1] | pIC50 [2]
1 | Cn1nnnc1Oc1cc(Nc2ncc(F)c(NC[C@@H]3CCCN4CCCC[C@H]34)n2)c(F)cc1C1CC1 [Compound 28, N2-(5-(1-methyl-1H-tetrazol-5-yloxy)-4-cyclopropyl-2-fluorophenyl)-5-fluoro-N4-(((1S,9aR)-octahydro-1H-quinolizin-1-yl)methyl)pyrimidine-2,4-diamine] | > 4.52 | 5.74
2 | O=C1COc2cc(Nc3ncc(F)c(NC[C@@H]4CCCN5CCCC[C@H]45)n3)ccc2N1CC1CC1 [Compound 26, 7-(4-(((1S,9aR)-octahydro-1H-quinolizin-1-yl)methylamino)-5-fluoropyrimidin-2-ylamino)-4-(cyclopropylmethyl)-2H-benzo[b][1,4]oxazin-3(4H)-one] | > 4.52 | 6.77
3 | Cc1nnnn1-c1ccc(F)c(Nc2ncc(C(F)(F)F)c(NC[C@@H]3CCCN4CCCC[C@H]34)n2)c1 [Compound 104, N2-(2-fluoro-5-(5-methyl-1H-tetrazol-1-yl)phenyl)-5-(trifluoromethyl)-N4-(((1S,9aR)-octahydro-1H-quinolizin-1-yl)methyl)pyrimidine-2,4-diamine] | > 4.52 | 4.57
4 | Cn1nnn(-c2cc(Nc3ncc(C#N)c(NC[C@@H]4CCCN5CCCC[C@H]45)n3)c(F)cc2OCC2(C)COC2)c1=O [Compound 130, 2-((2-fluoro-5-(4-methyl-5-oxo-4,5-dihydro-1H-tetrazol-1-yl)-4-((3-methyloxetan-3-yl)methoxy)phenyl)amino)-4-((((1S,9aR)-octahydro-2H-quinolizin-1-yl)methyl)amino)pyrimidine-5-carbonitrile] | > 4.52 | 6.35
5 | CCN1C(=O)C(F)(F)Oc2cc(Nc3ncc(F)c(NC[C@@H]4CCCN5CCCC[C@H]45)n3)cnc21 [Compound 27, 7-(4-(((1S,9aR)-octahydro-1H-quinolizin-1-yl)methylamino)-5-fluoropyrimidin-2-ylamino)-4-ethyl-2,2-difluoro-2H-pyrido[3,2-b][1,4]oxazin-3(4H)-one] | > 4.52 | 6.19
6 | Cc1ccc(Nc2ncc(C)c(NC[C@@H]3CCCN4CCCC[C@H]34)n2)cc1-n1cnnn1 [Compound 60, N4-(((1S,9aR)-octahydro-1H-quinolizin-1-yl)methyl)-5-methyl-N2-(4-methyl-3-(1H-tetrazol-1-yl)phenyl)pyrimidine-2,4-diamine] | > 4.52 | 5.87
7 | Cc1nnnn1-c1cc(Nc2nccc(NC[C@@H]3CCCN4CCCC[C@H]34)n2)ccc1F [Compound 49, N2-(4-fluoro-3-(5-methyl-1H-tetrazol-1-yl)phenyl)-N4-(((1S,9aR)-octahydro-1H-quinolizin-1-yl)methyl)pyrimidine-2,4-diamine] | > 4.52 | 6.05
8 | CN(C)c1cnc(Nc2cc(-n3nnn(C)c3=O)c(C3CC3)cc2F)nc1NC[C@@H]1CCCN2CCCC[C@H]12 [Compound 87] | > 4.52 | 5.08
9 | CC1(C)Oc2cc(Nc3ncc(F)c(NC[C@@H]4CCCN5CCCC[C@H]45)n3)ccc2N(CCCF)C1=O [Compound 25, 7-(4-(((1S,9aR)-octahydro-1H-quinolizin-1-yl)methylamino)-5-fluoropyrimidin-2-ylamino)-4-(3-fluoropropyl)-2,2-dimethyl-2H-benzo[b][1,4]oxazin-3(4H)-one] | > 4.52 | 6.07
10 | Fc1cnc(Nc2ccccc2)nc1NC[C@@H]1CCCN2CCCC[C@H]12 [Compound 13, 5-fluoro-N4-(((1S,9aR)-octahydro-1H-quinolizin-1-yl)methyl)-N2-phenylpyrimidine-2,4-diamine] | > 4.52 | 5.35
11 | Cn1nnn(-c2cc(Nc3ncc(C#N)c(NC[C@@H]4CCCN5CCCC[C@H]45)n3)c(F)cc2OCCO)c1=O [Compound 135, 2-((2-fluoro-4-(2-hydroxyethoxy)-5-(4-methyl-5-oxo-4,5-dihydro-1H-tetrazol-1-yl)phenyl)amino)-4-((((1S,9aR)-octahydro-2H-quinolizin-1-yl)methyl)amino)pyrimidine-5-carbonitrile] | > 4.52 | 
12 | Cc1ccc(Nc2ncc(C#N)c(NC[C@@H]3CCCN4CCCC[C@H]34)n2)cc1-n1cnnn1 [Compound 117, 4-(((1S,9aR)-octahydro-1H-quinolizin-1-yl)methylamino)-2-(4-methyl-3-(1H-tetrazol-1-yl)phenylamino)pyrimidine-5-carbonitrile] | > 4.52 | 7.93
13 | Cn1nnn(-c2cc(Nc3ncc(F)c(NC[C@@H]4CCCN5CCCC[C@H]45)n3)ccc2OC2COC2)c1=O [Compound 14, 1-(5-(4-(((1S,9aR)-octahydro-1H-quinolizin-1-yl)methylamino)-5-fluoropyrimidin-2-ylamino)-2-(oxetan-3-yloxy)phenyl)-4-methyl-1H-tetrazol-5(4H)-one] | > 4.52 | 6.70
14 | O=c1[nH]c2cc(Nc3ncc(C(F)(F)F)c(NC[C@@H]4CCCN5CCCC[C@H]45)n3)ccc2o1 [Compound 112, 5-(4-(((1S,9aR)-octahydro-1H-quinolizin-1-yl)methylamino)-5-(trifluoromethyl)pyrimidin-2-ylamino)benzo[d]oxazol-2(3H)-one] | > 4.52 | 4.66
15 | CN(C)c1cnc(Nc2ccc(C3CC3)c(C#N)c2)nc1NC[C@@H]1CCCN2CCCC[C@H]12 [Compound 94, 5-(4-(((1S,9aR)-octahydro-1H-quinolizin-1-yl)methylamino)-5-(dimethylamino)pyrimidin-2-ylamino)-2-cyclopropylbenzonitrile] | > 4.52 | 5.59
16 | Fc1cc(Nc2ncc(F)c(NC[C@@H]3CCCN4CCCC[C@H]34)n2)cc(S(F)(F)(F)(F)F)c1 [Compound 30, 5-fluoro-N2-(3-pentafluorosulfanyl-5-fluoro-phenyl)-N4-(((1S,9aR)-octahydro-1H-quinolizin-1-yl)methyl)pyrimidine-2,4-diamine] | > 4.52 | 6.17
17 | CN(C)c1cnc(Nc2ccc3oc(=O)[nH]c3c2)nc1NC[C@@H]1CCCN2CCCC[C@H]12 [Compound 97, 5-(4-(((1S,9aR)-octahydro-1H-quinolizin-1-yl)methylamino)-5-(dimethylamino)pyrimidin-2-ylamino)benzo[d]oxazol-2(3H)-one] | > 4.52 | 5.27
18 | Cn1nnn(-c2cc(Nc3ncc(Cl)c(NC[C@@H]4CCCN5CCCC[C@H]45)n3)c(F)cc2C2CC2)c1=O [Compound 34, 1-(5-(4-(((1S,9aR)-octahydro-1H-quinolizin-1-yl)methylamino)-5-chloropyrimidin-2-ylamino)-2-cyclopropyl-4-fluorophenyl)-4-methyl-1H-tetrazol-5(4H)-one] | > 4.52 | 6.17
19 | COc1ccc(Nc2ncc(OC)c(NC[C@@H]3CCCN4CCCC[C@H]34)n2)cc1-n1nnnc1C [Compound 77, N4-(((1S,9aR)-octahydro-1H-quinolizin-1-yl)methyl)-5-methoxy-N2-(4-methoxy-3-(5-methyl-1H-tetrazol-1-yl)phenyl)pyrimidine-2,4-diamine] | > 4.52 | 5.62
20 | Cc1nnnn1-c1cc(Nc2ncc(F)c(NC[C@@H]3CCCN4CCCC[C@H]34)n2)ccc1F [Compound 8, 5-fluoro-N2-(4-fluoro-3-(5-methyl-1H-tetrazol-1-yl)phenyl)-N4-(((1S,9aR)-octahydro-1H-quinolizin-1-yl)methyl)pyrimidine-2,4-diamine] | > 4.52 | 6.98
21 | COc1cc(Nc2nccc(NC[C@@H]3CCCN4CCCC[C@H]34)n2)cc(-n2nnnc2C)c1 [Compound 52, N4-(((1S,9aR)-octahydro-1H-quinolizin-1-yl)methyl)-N2-(3-methoxy-5-(5-methyl-1H-tetrazol-1-yl)phenyl)pyrimidine-2,4-diamine] | > 4.52 | 6.35
22 | C[C@@H](O)COc1cc(F)c(Nc2ncc(C#N)c(NC[C@@H]3CCCN4CCCC[C@H]34)n2)cc1-n1nnn(C)c1=O [Compound 143, 2-((2-fluoro-4-((R)-2-hydroxypropoxy)-5-(4-methyl-5-oxo-4,5-dihydro-1H-tetrazol-1-yl)phenyl)amino)-4-((((1S,9aR)-octahydro-2H-quinolizin-1-yl)methyl)amino)pyrimidine-5-carbonitrile] | > 4.52 | 6.83
23 | O=S1(=O)CCCN1c1cc(Nc2ncc(F)c(NC[C@@H]3CCCN4CCCC[C@H]34)n2)ccc1F [Compound 24, N2-[3-(1,1-dioxo-isothiazolidin-2-yl)-4-fluoro-phenyl]-5-fluoro-N4-(((1S,9aR)-octahydro-1H-quinolizin-1-yl)methyl)-pyrimidine-2,4-diamine] | > 4.52 | 5.46
24 | N#Cc1cnc(Nc2cc(-n3cnnn3)c(C3CC3)cc2F)nc1NC[C@@H]1CCCN2CCCC[C@H]12 [Compound 116, 4-(((1S,9aR)-octahydro-1H-quinolizin-1-yl)methylamino)-2-(4-cyclopropyl-2-fluoro-5-(1H-tetrazol-1-yl)phenylamino)pyrimidine-5-carbonitrile] | > 4.52 | 8.13
25 | CN(C)c1cnc(Nc2cc(-n3cnnn3)c(C3CC3)cc2F)nc1NC[C@@H]1CCCN2CCCC[C@H]12 [Compound 85, N2-(4-cyclopropyl-2-fluoro-5-(1H-tetrazol-1-yl)phenyl)-N4-(((1S,9aR)-octahydro-1H-quinolizin-1-yl)methyl)-N5,N5-dimethylpyrimidine-2,4,5-triamine] | > 4.52 | 5.48
26 | CC1(C)Oc2ccc(Nc3ncc(F)c(NC[C@@H]4CCCN5CCCC[C@H]45)n3)cc2-n2nnnc21 [Compound 98, N2-(4,4-dimethyl-4H-5-oxa-1,2,3,9b-tetraaza-cyclopenta[a]naphthalen-8-yl)-5-fluoro-N4-(((1S,9aR)-octahydro-1H-quinolizin-1-yl)methyl)-pyrimidine-2,4-diamine] | > 4.52 | 7.11
